Data published in patent US20080138284A1, “Novel Peptides That Promote Lipid Efflux” (Lipid Sciences, Inc., priority 2006, published 2008).
Ends that are not written are not given here.

Experiments:
[1] = test system: FU5AH rat hepatoma cells (SR-B1); test: SR-B1 mediated cholesterol efflux; assay type: cell-based; settings: peptide samples run at 30 μg/ml
Text: (§1) The methods employed in this study have been described in U.S. Pat. Nos. 7,029,863, 7,060,452, U.S. Patent Application Publication No. 2005/0191715, and in Moya et al., Arteriosclerosis & Thrombosis 1994:14:1056-1065 and Liu et al., J. Biol. Chem., 2003:278(44), 42976-42984. SR-B1 mediated cholesterol efflux is examined in FU5AH rat hepatoma cells and ABCA1 mediated cholesterol efflux is examined in J774 mouse macrophage cells as described in these references.

[2] = test system: apoE knockout mice on a chow diet and LDL receptor knockout mice on a western high fat diet; test: Aortic arch atherosclerosis in knockout mice; assay type: in vivo, mouse; settings: 2 mg/kg to 50 mg/kg iv or ip, 2 to 3 times per week, approximately 6 weeks
Protocol: The ability of the peptides of the present invention and associated fragments are tested in apoE knockout mice on a chow diet and LDL receptor knockout mice on a western high fat diet to determine the effect of these peptides to reduce atherosclerosis in a mouse model system. One or more of the peptides of the present invention, in a range of concentration of 2 mg/kg to 50 mg/kg, is injected intravenously (iv) or intraperitoneally (ip) 2 to 3 times per week over a period of approximately 6 weeks. Aortic atherosclerosis is quantitated in the aortic arch before administration of the peptides and after the 6 week period of administration. (Wu et al., J. Biol. Chem.; 2004: 279, 22913-22925).

[3] = test system: atherosclerotic coronary artery; test: Coronary atherosclerosis by IVUS in individuals with acute coronary syndrome; assay type: in vivo, human; settings: iv weekly for 5 to 8 weeks, on stable hypolipidemic drug therapy
Text: Individuals with acute coronary syndrome and documented atherosclerosis have a cardiac catherization with intravascular ultrasound (IVUS) to document coronary atherosclerosis of 20 to 50% obstruction in the target artery. Each individual is on stable hypolipidemic drug therapy and receives an acceptable dose of a peptide of the present invention and/or an associated fragment iv weekly for a period of 5 to 8 weeks. A repeat IVUS measurement is made at the end of the treatment period to assess the effect of the peptide infusion on coronary atherosclerosis in the target vessel.

[4] = test system: J774 mouse macrophage cells (ABCA1); test: ABCA1 mediated cholesterol efflux; assay type: cell-based; settings: peptide samples run at 30 μg/ml
Text: as §1

Substance | effect on cholesterol efflux from the Fu5AH cells (SRB1 pathway) [1] | atherosclerosis in the aortic arch [2] | plaque in the atherosclerotic coronary artery (IVUS) [3] | efflux of cholesterol from J774 macrophage cells (ABCA1 pathway) [4]
Ac-Gly Glu Glu Met Arg Asp Arg Ala Arg Ala His Val Asp Ala Leu Arg Thr His Ala Lys Pro Val Leu Leu Glu Ser Phe Lys Val Ser Phe Leu Ser Ala Leu Glu Glu Tyr Thr Lys Lys-NH2 (Ac-GEEMRDRARAHVDALRTHAKPVLLESFKVSFLSALEEYTKK-NH2) [SEQ ID NO:354] | negligible or no effect | reduce atherosclerosis in the aortic arch | reduce plaque in the atherosclerotic coronary artery | stimulate efflux of cholesterol
Ac-Leu Glu Ser Ala Lys Val Ser Ala Leu Ser Ala Leu Glu Glu Ala Thr Lys Lys Ala Lys Pro Val Leu Leu Glu Ser Phe Lys Val Ser Phe Leu Ser Ala Leu Glu Glu Tyr Thr Lys Lys-NH2 (Ac-LESAKVSALSALEEATKKAKPVLLESFKVSFLSALEEYTKK-NH2) [SEQ ID NO:372] | negligible or no effect | reduce atherosclerosis in the aortic arch | reduce plaque in the atherosclerotic coronary artery | stimulate efflux of cholesterol
Ac-Ser Asp Glu Leu Arg Gln Arg Leu Ala Ala Arg Leu Glu Ala Leu Lys Glu Asn Ala Lys Pro Val Leu Leu Glu Ser Phe Lys Val Ser Phe Leu Ser Ala Leu Glu Glu Tyr Thr Lys Lys-NH2 (Ac-SDELRQRLAARLEALKENAKPVLLESFKVSFLSALEEYTKK-NH2) [SEQ ID NO:355] | negligible or no effect | reduce atherosclerosis in the aortic arch | reduce plaque in the atherosclerotic coronary artery | stimulate efflux of cholesterol
GEEMRDRARAHVDALRTHAKPVLLESFKVSFLSALEEYTKK [SEQ ID NO:72] | negligible or no effect | reduce atherosclerosis in the aortic arch | reduce plaque in the atherosclerotic coronary artery | stimulate efflux of cholesterol
LESAKVSALSALEEATKKAKPVLLESFKVSFLSALEEYTKK [SEQ ID NO:89] | negligible or no effect | reduce atherosclerosis in the aortic arch | reduce plaque in the atherosclerotic coronary artery | stimulate efflux of cholesterol
SDELRQRLAARLEALKENAKPVLLESFKVSFLSALEEYTKK [SEQ ID NO:80] | negligible or no effect | reduce atherosclerosis in the aortic arch | reduce plaque in the atherosclerotic coronary artery | stimulate efflux of cholesterol
